Like-named read-outs stand apart in the source and are kept apart here.
What was measured:
[1] = system: PD1-ss+10aa/Gaussia Luciferase; assay: Dox-Induced PD1-ss-Gluc Assay; type: cell-based
Excerpt: Flp-In 293 T-REx™ cells were transfected with pcDNA™5/FRT/TO plasmid inserted with cDNA encoding Gaussia Luciferase fused to the 3′ end of cDNA encoding PD1 signal sequence plus 10 amino acids (N-[…]-C) (SEQ ID NO: 1). Transfected cells were selected for resistance to the selectable markers Hygromycin and Blasticidin to create a stable cell line that contained the PD1-ss+10aa/Gaussia Luciferase cDNA insert whose expression was regulated under the T-REx™ system. The day before assay, cells were trypsinized and plated in 384-well tissue culture plates. The next day, compound dilutions in DMSO/media containing doxycycline were added to the wells and incubated at 37° C., 5% CO2.
(§1) For chemical structures that include one or more stereoisomers, but are illustrated without indicating stereochemistry, the assay data refers to a mixture of stereoisomers.

[2] = Liver Microsome Stability Assay, human; type: in vitro ADME; conditions: human liver microsomes 1.0 mg/mL, 1.0 uM compound, 37° C., 1 mM NADPH
Protocol: (§2) Stability of a compound was assessed in the presence of liver microsomes from various sources—mouse, rat, monkey and human liver microsomes. 1.0 uM compound, 0.4% DMSO in 0.1 M Potassium Phosphate with 1.0 mg/mL liver microsomes, were incubated at 37° C. with or without 1 mM NADPH. The samples were quenched at 0, and 30 minutes.

[3] = Liver Microsome Stability Assay, monkey; type: in vitro ADME; conditions: monkey liver microsomes 1.0 mg/mL, 1.0 uM compound, 37° C., 1 mM NADPH
Protocol: as §2

[4] = system: IL6R-ss+10aa/Gaussia Luciferase; assay: Dox-induced IL-6R-ss-Gluc Assay; type: cell-based
Excerpt: Flp-In 293 T-REx™ cells were transfected with pcDNATM5/FRT/TO plasmid inserted with cDNA encoding Gaussia Luciferase fused to the 3′ end of cDNA encoding IL6R signal sequence plus 10 amino acids (N-[…]-C). Transfected cells were selected for resistance to the selectable markers Hygromycin and Blasticidin to create a stable cell line that contained the IL6R-ss+10aa/Gaussia Luciferase cDNA insert whose expression was regulated under the T-REx™ system. The day before assay, cells were trypsinized and plated in 384-well tissue culture plates. The next day, compound dilutions in DMSO/media containing doxycycline were added to the wells and incubated at 37° C., 5% CO2.
as §1

[5] = Liver Microsome Stability Assay, mouse; type: in vitro ADME; conditions: mouse liver microsomes 1.0 mg/mL, 1.0 uM compound, 37° C., 1 mM NADPH
Protocol: as §2

[6] = system: multiple myeloma cell line U266B1; assay: U266 Cell Viability Assay; type: cell-based; conditions: Homo sapiens
Protocol: (§3) The human multiple myeloma cell line U266B1 was cultured in RPMI 1640 media supplemented with 10% fetal bovine serum, 2 mM Glutamine, and 1× Penicillin/Streptomycin. Cells were plated in 384-well tissue culture plates and treated with compound dilutions in DMSO/media. Plates were incubated at 37° C., 5% CO2 for 48 hours. After 48 hours, Celltiter-Glo® (Promega) was added to each well and luciferase signal was quantified using Tecan Infinite M1000 Pro for cell viability determination.
as §1

[7] = system: IL-2-FL/Gaussia Luciferase; assay: Dox Inducible IL2-FL-Gluc Assay; type: cell-based
Excerpt: Flp-In 293 T-REx™ cells were transfected with pcDNA™5/FRT/TO plasmid inserted with cDNA encoding Gaussia Luciferase fused to the 3′ end of cDNA encoding full length IL-2 (amino acids 1-153). Transfected cells were selected for resistance to the selectable markers Hygromycin and Blasticidin to create a stable cell line that contained the IL-2-FL/Gaussia Luciferase cDNA insert whose expression was regulated under the T-REx™ system. The day before assay, cells were trypsinized and plated in 384-well tissue culture plates. The next day, compound dilutions in DMSO/media containing doxycycline were added to the wells and incubated at 37° C., 5% CO2.
as §1

[8] = Liver Microsome Stability Assay, rat; type: in vitro ADME; conditions: rat liver microsomes 1.0 mg/mL, 1.0 uM compound, 37° C., 1 mM NADPH
Protocol: as §2

[9] = system: CD47(ss + 10)Gluc; assay: Dox-Induced CD47-ss-Gluc Assay; type: cell-based
[10] = system: multiple myeloma cell line NCI-H929; assay: H929 Cell Viability Assay; type: cell-based, human; conditions: NCI-H929 cells, 48 hours, Celltiter-Glo; for EC50: Homo sapiens, read-out: 48 hr H929 Viability Celltiter-Glo: Mean EC50
Protocol: as §3, with “NCI-H929” for “U266B1”, “cultured in Advanced RPMI 1640 media (Gibco®) supplemented with 6% fetal bovine serum, 2 mM Glutamine, and 1× Penicillin/Streptomycin. On the day of assay, cells were resuspended” for “cultured”, “Penicillin/Streptomycin and” for “Penicillin/Streptomycin. Cells were”
as §1

[11] = ratio of IC50s IL6R/PD1; Table 1
[12] = ratio of IC50s IL2/PD1; Table 1
[13] = Flp-In 293 T-REx cells, 24 hours with doxycycline; Table 1; read-out: 24 hr Dox Inducible PD1ssGluc 293FRT/TO: Mean IC50
[14] = Flp-In 293 T-REx cells, 24 hours with doxycycline; Table 1; read-out: 24hr Dox Inducible IL6R(ss + 10)Gluc 293FRT/TO: Mean IC50
[15] = U-266, U266B1 cells, 48 hours, Celltiter-Glo, read-out: 48 hr U266 Viability Celltiter-Glo: Mean EC50
[16] = Flp-In 293 T-REx cells, 24 hours with doxycycline; Table 1; read-out: 24 hr Dox Inducible IL2FLGluc 293FRT/TO: Mean IC50
[17] = Flp-In 293 T-REx cells, 24 hours with doxycycline; Table 1; read-out: 24 hr Dox Inducible CD47(ss + 10)Gluc 293FRT/TO: Mean IC50

| Structure (SMILES) | IC50 ([1]; read-out: 24 hr Dox Inducible PD1ssGluc 293FRT/TO: Mean IC50; Flp-In 293 T-REx cells, 24 hours with doxycycline; Table 1) [µM] | Liver Microsome Stability (Multiple Species): Human - % Remaining after 30 min w/ NADPH (%) [2] [%] | Liver Microsome Stability (Multiple Species): Monkey - % Remaining after 30 min w/ NADPH (%) [3] [%] | 24hr Dox Inducible IL6R(ss + 10)Gluc 293FRT/TO: IL6R/PD1 [4, 11] | IC50 ([4]; read-out: 24hr Dox Inducible IL6R(ss + 10)Gluc 293FRT/TO: Mean IC50; Flp-In 293 T-REx cells, 24 hours with doxycycline; Table 1) [µM] | Liver Microsome Stability (Multiple Species): Mouse - % Remaining after 30 min w/ NADPH (%) [5] [%] | EC50 ([6]; U-266, 48 h, read-out: 48 hr U266 Viability Celltiter-Glo: Mean EC50 (nM)) [nM] | 24 hr Dox Inducible IL2FLGluc 293FRT/TO: IL2/PD1 [7, 12] | IC50 ([7]; read-out: 24 hr Dox Inducible IL2FLGluc 293FRT/TO: Mean IC50; Flp-In 293 T-REx cells, 24 hours with doxycycline; Table 1) [µM] | Liver Microsome Stability (Multiple Species): Rat - % Remaining after 30 min w/ NADPH (%) [8] [%] | IC50 ([9]; read-out: 24 hr Dox Inducible CD47(ss + 10)Gluc 293FRT/TO: Mean IC50; Flp-In 293 T-REx cells, 24 hours with doxycycline; Table 1) [µM] | 48 hr H929 Viability Celltiter-Glo: Mean EC50 (nM) [10] | IC50 [1, 13] [µM] | IC50 [4, 14] [µM] | EC50 [6, 15] [nM] | IC50 [7, 16] [µM] | IC50 [9, 17] [µM] | EC50 [10] [µM] |
| --- | --- | --- | --- | --- | --- | --- | --- | --- | --- | --- | --- | --- | --- | --- | --- | --- | --- | --- |
| COc1cc(C(=O)Nc2nc(/C=C/c3ncn(C(C)C)c3Cl)c(Cl)s2)n(Cc2ccnc(F)c2)c1 [Compound A6, (E)-N-(5-chloro-4-(2-(5-chloro-1-isopropyl-1H-imidazol-4-yl)vinyl)thiazol-2-yl)-1-((2-fluoropyridin-4-yl)methyl)-4-methoxy-1H-pyrrole-2-carboxamide] | 0.085 | 48 | 30 | 28 | 2.33 | 96 | > 25000 | 29 | 2.42 | 76 | 2.16 | I.A | – | – | – | – | – | – |
| CC(C)n1cnc(/C=C/c2csc(NC(=O)c3cc(OC(F)F)cn3Cc3ccnc(F)c3)n2)c1Cl [Compound A7, (E)-N-(4-(2-(5-chloro-1-isopropyl-1H-imidazol-4-yl)vinyl)thiazol-2-yl)-4-(difluoromethoxy)-1-((2-fluoropyridin-4-yl)methyl)-1H-pyrrole-2-carboxamide] | – | 64 | 55 | 176 | – | 82 | – | 200 | – | 84 | – | – | 0.014 | 2.43 | > 25000 | 2.7 | 2.1 | 19.5 |
| O=C(Nc1nc(/C=C/c2ncoc2C(F)(F)F)cs1)c1cc(Cl)cn1Cc1ccnc(F)c1 [Compound A8, (E)-4-chloro-1-((2-fluoropyridin-4-yl)methyl)-N-(4-(2-(5-(trifluoromethyl)oxazol-4-yl)vinyl)thiazol-2-yl)-1H-pyrrole-2-carboxamide] | – | 72 | 68 | 15 | – | 86 | – | 14 | – | 47 | – | – | 0.129 | 1.96 | 12800 | 1.82 | 1.74 | 7.44 |
| COc1cc(C(=O)Nc2nc(/C(F)=C/c3cn(C(C)C)cn3)cs2)n(Cc2ccnc(F)c2)c1 [Compound A9, (Z)-N-(4-(1-fluoro-2-(1-isopropyl-1H-imidazol-4-yl)vinyl)thiazol-2-yl)-1-((2-fluoropyridin-4-yl)methyl)-4-methoxy-1H-pyrrole-2-carboxamide] | – | 11 | 9 | – | – | 64 | – | – | – | 66 | – | – | > 25 | > 25 | > 25000 | > 25 | > 25 | > 25 |
| CC(C)n1cnc(/C=C/c2csc(NC(=O)c3cc(Cl)cn3Cc3ccnc(F)c3)n2)c1C(F)(F)F [Compound A10, (E)-4-chloro-1-((2-fluoropyridin-4-yl)methyl)-N-(4-(2-(1-isopropyl-5-(trifluoromethyl)-1H-imidazol-4-yl)vinyl)thiazol-2-yl)-1H-pyrrole-2-carboxamide] | – | 27 | 38 | 96 | – | 87 | – | 97 | – | 77 | – | – | 0.011 | 1.05 | > 25000 | 1.07 | 0.933 | 5.45 |

— patent publication US20250171434A1, “SEC61 INHIBITORS AND USE THEREOF” (KEZAR LIFE SCIENCES, INC., priority 2022, published 2025)
